Test results from patent US20240368605A1, “USE OF SPLICE SWITCHING OLIGONUCLEOTIDES FOR EXON SKIPPING-MEDIATED KNOCKDOWN OF PIM2” (INSTITUT NATIONAL DE LA SANTÉ ET DE LA RECHERCHE MÉDICALE, priority 2021, published 2024).

System: PBs
Test: Mitochondria/Caspase 3-driven apoptosis and viability of PBs
Type: cell-based, human
Conditions: PBs
From the text: Mitochondrial-driven cell death is activated once the mitochondria lose the ability to maintain the inner membrane potential, resulting in the release of proapoptotic proteins into the cytosol. Commitment towards PBs is sustained by an extensive reconfiguration of the epigenetic landscape and of gene expression patterns, both showing that the most prominent function involves cell death and survival (Caron et al., 2015). […] We then investigated the different cell subsets generated through the differentiation model at the protein level for factors involved in apoptosis triggered by mitochondria (data not shown). The PBs compared to all other subsets increased the expression of pBAD and XIAP, both proteins counteract the apoptotic pathway and were described in PIM2-induced survival effect (data not shown) (Fox, 2003; Macdonald et al., 2006; Yan et al., 2003). In accordance with this finding and despite a strong increase in procaspase 3 protein (32 kDa size), PBs decrease the autocatalytic activity of Caspase 3 and therefore the production of p19/p17 apoptosis executors as highlighted by the low levels of cleaved PARP (data not shown) (Ponder and Boise, 2019). […] In addition, we found in P2/CD23+ cells a complete degradation of PARP which illustrate the fact that the apoptosis process is consubstantially associated with the B cell terminal differentiation if cells are not otherwise protected (data not shown).
We then inhibited PIM2 which led to an intense activation of Caspase 3 and a decrease of viability of PBs. The latter was rescued by the Caspase 3 inhibitor Q-DEVD-OPH (data not shown).
The differentiation of immature monocytes is associated with a relocalization of nuclear p21^Cip1/WAF1 to the cytoplasm where the protein participates to apoptosis blockage (Asada, 1999). In addition, Suzuki et al. ascribed the formation of a Procaspase 3/p21^Cip1/WAF1 complex in the context of resistance to Fas-mediated cell death owing to the phosphorylation of p21 by protein kinase A (Suzuki et al., 2000). We wanted therefore to explore whether p21^Cip1/WAF1 may bind Procaspase 3 and developed to this end a FRET approach which detected a signal of energy transfer compatible with such physical interaction. […] We then confirmed the binding between p21^Cip1/WAF1 and Caspase 3 in XG21 cells and in PBs by IP (data not shown). Finally, to confirm the anti-apoptotic role of cytoplasmic p21^Cip1/WAF1 in PBs we inhibited p21^Cip1/WAF1 expression by a siRNA targeting CDKN1A in in vitro D4 B cells (data not shown) and found an activation of the execution of apoptosis characterized by the detection of the p17-fragment cleavage of caspase 3 in parallel to the cleavage of PARP (data not shown) and similar results were found in XG21 cells (data not shown). […] The role of PIM2 is to stabilize p21^Cip1/WAF1 protein in the cytoplasm allowing therefore the formation a multiprotein complex which inhibits Caspase 3 full activation (data not shown).

5′-CCTCATGACGGATACCTGGAGTC-3′ (all phosphorodiamidate morpholino (PMO)) [SSO-PIM2]
cleaved PARP protein: production of cleaved PARP protein
mitochondrial depolarization: strong mitochondrial depolarization
pBAD and XIAP protein: decrease of pBAD and XIAP
